What was measured:
Type in all cases: cell-based
[1] = test system: extraintestinal Escherichia coli isolates; assay: Antimicrobial susceptibility testing (CLSI breakpoints), Olmsted County isolates; details: for Resistance prevalence among H30 ST131: H30 ST131 subclone, N = 70; for Resistance prevalence among non-H30 ST131: non-H30 ST131, N = 10
[2] = test system: Escherichia coli clinical isolates (ESBL-positive and ESBL-negative; ST131 subclones); assay: Broth microdilution antimicrobial susceptibility, NorthShore ESBL case-control isolates; details: for No. of resistant isolates (column %), H30-Rx (N = 47): H30-Rx subclone isolates (N = 47) within the H30 ST131 subclone; for No. of resistant isolates (column %), H30, non-Rx (N = 15): H30 non-Rx isolates (N = 15) within the H30 ST131 subclone; for No. of resistant isolates (column %), H30 (N = 62): H30 subclone isolates (N = 62) among 71 E. coli ST131 isolates; for No. of resistant isolates (column %), Non-H30 (N = 9): non-H30 isolates (N = 9) among 71 E. coli ST131 isolates
Excerpt: As reported elsewhere, the 267 E. coli study isolates were collected between 2007 and 2010 as part of a prospective case-control study conducted at NorthShore University HealthSystem (Banerjee, R J et al. “Predictors and molecular epidemiology of community-onset extended-spectrum beta-lactamase (ESBL) Escherichia coli infection in a Midwestern community,” 2013 Infect Control Hosp Epidemiol; in press). Cases were defined as adults with ESBL-producing E. coli cultured from any specimen type. Controls were defined as the 1 or 2 patients with non-ESBL E. coli isolates identified just subsequent to the case isolate, and with the same specimen type and location of collection. Isolates obtained in the outpatient setting or within 48 hours of hospital admission were considered causes of community-associated infection. Further study details are as described (Banerjee, R J et al. “Predictors and molecular epidemiology of community-onset extended-spectrum beta-lactamase (ESBL) Escherichia coli infection in a Midwestern community,” 2013 Infect Control Hosp Epidemiol; in press).
The resistance score was the total number of agents to which an isolate was resistant. This study was approved by the NorthShore and VA Medical Center institutional review boards.

[3] = test system: Escherichia coli clinical isolates from U.S. veterans; assay: Susceptibility testing (broth microdilution or disk diffusion) at VAMCs with population back-calculations; details: for Prevalence of resistance, H30 ST131: H30 ST131 subclone isolates (H30 subclone vs. others); for Prevalence of resistance, ST131: ST131 isolates (ST131 vs. others); for Prevalence of resistance, Total (%): all isolates; for Estimated fraction due to ST131: fraction of resistance phenotype due to ST131; for Overall prevalence in population, %: resistance phenotype, back-calculated with 29% FQ resistance
[4] = ESBL-negative isolates, All N = 167
[5] = ESBL-negative isolates, Non-ST131 N = 145
[6] = ESBL-negative isolates, ST131 N = 22
[7] = ESBL-positive isolates, All N = 100
[8] = ESBL-positive isolates, Non-ST131 N = 51
[9] = ESBL-positive isolates, ST131 N = 49
[10] = all non-H30 isolates (H30 subclone vs. others)
[11] = all non-ST131 isolates (ST131 vs. others)
[12] = resistance prevalence among H30 ST131 subclone isolates relative to all other isolates
[13] = resistance prevalence among ST131 isolates relative to all other isolates

For `CC1(C)S[C@@H]2[C@H](NC(=O)[C@H](N)c3ccccc3)C(=O)N2[C@H]1C(=O)O` [Ampicillin, ampicillin], the “No. of resistant isolates (column %)” value ([1]; All isolates, N = 299) was 156 (52), the “Resistance prevalence among H30 ST131” value [1] was 81% and the “No. of resistant isolates (column %)” value ([1]; Other STs, N = 129) was 3 (41). For the same molecule, the “No. of resistant isolates (column %)” value ([1]; ST9, N = 32) was 13 (41), the “No. of resistant isolates (column %)” value ([1]; ST69, N = 15) was 11 (73) and the “No. of resistant isolates (column %)” value ([1]; ST73, N = 25) was 10 (40). For the same molecule, the “No. of resistant isolates (column %)” value ([1]; ST127, N = 18) was 4 (22), the “No. of resistant isolates (column %)” value ([1]; ST131, N = 80) was 65 (81) and the “Resistance prevalence among non-H30 ST131” value [1] was 80%. The “No. resistant (column %)” value [2, 4] was 73 (44), the “No. resistant (column %)” value [2, 5] was 54 (37) and the “No. resistant (column %)” value [2, 6] was 19 (86). The “No. resistant (column %)” value [2, 7] was 100 (100), the “No. resistant (column %)” value [2, 8] was 51 (100) and the “No. resistant (column %)” value [2, 9] was 49 (100). For the same molecule, the “No. of resistant isolates (column %), H30-Rx (N = 47)” value [2] was 46 (98) No. (column %), the “No. of resistant isolates (column %), H30, non-Rx (N = 15)” value [2] was 15 (100) No. (column %) and the “No. of resistant isolates (column %), H30 (N = 62)” value [2] was 61 (98) No. (column %). The “No. of resistant isolates (column %), Non-H30 (N = 9)” value [2] was 7 (78) No. (column %), the “Prevalence of resistance, H30 ST131” value [3] was 76 and the “Prevalence of resistance, ST131” value [3] was 77. For the same molecule, the “Prevalence of resistance, Total (%)” value [3] was 46%, the “Prevalence of resistance, Others (%)” value [3, 10] was 36% and the “Prevalence of resistance, Others (%)” value [3, 11] was 34%. The “Estimated fraction due to ST131” value [3] was “.46”, the “Overall prevalence in population, %” value [3] was 46% and the “Prevalence ratio of resistance” value [3, 12] was 2.1. The “Prevalence ratio of resistance” value [3, 13] was 2.3.

For `Cc1nnc(SCC2=C(C(=O)O)N3C(=O)[C@@H](NC(=O)Cn4cnnn4)[C@H]3SC2)s1` [Cefazolin, cefazolin], the “No. of resistant isolates (column %)” value ([1]; All isolates, N = 299) was 93 (31), the “Resistance prevalence among H30 ST131” value [1] was 58% and the “No. of resistant isolates (column %)” value ([1]; Other STs, N = 129) was 30 (23). For the same molecule, the “No. of resistant isolates (column %)” value ([1]; ST9, N = 32) was 3 (9), the “No. of resistant isolates (column %)” value ([1]; ST69, N = 15) was 5 (33) and the “No. of resistant isolates (column %)” value ([1]; ST73, N = 25) was 7 (28). The “No. of resistant isolates (column %)” value ([1]; ST127, N = 18) was 3 (17), the “No. of resistant isolates (column %)” value ([1]; ST131, N = 80) was 45 (57) and the “Resistance prevalence among non-H30 ST131” value [1] was 50%. The “No. resistant (column %)” value [2, 4] was 10 (6), the “No. resistant (column %)” value [2, 5] was 9 (6) and the “No. resistant (column %)” value [2, 6] was 1 (5). The “No. resistant (column %)” value [2, 7] was 99 (99), the “No. resistant (column %)” value [2, 8] was 51 (100) and the “No. resistant (column %)” value [2, 9] was 48 (98). The “No. of resistant isolates (column %), H30-Rx (N = 47)” value [2] was 43 (91) No. (column %), the “No. of resistant isolates (column %), H30, non-Rx (N = 15)” value [2] was 5 (33) No. (column %) and the “No. of resistant isolates (column %), H30 (N = 62)” value [2] was 48 (77) No. (column %). The “No. of resistant isolates (column %), Non-H30 (N = 9)” value [2] was 1 (11) No. (column %), the “Prevalence of resistance, H30 ST131” value [3] was 27 and the “Prevalence of resistance, ST131” value [3] was 29. For the same molecule, the “Prevalence of resistance, Total (%)” value [3] was 17%, the “Prevalence of resistance, Others (%)” value [3, 10] was 14% and the “Prevalence of resistance, Others (%)” value [3, 11] was 12%. The “Estimated fraction due to ST131” value [3] was “.47”, the “Overall prevalence in population, %” value [3] was 17% and the “Prevalence ratio of resistance” value [3, 12] was 2.0. For the same molecule, the “Prevalence ratio of resistance” value [3, 13] was 2.3.

For `CC(C)(O/N=C(\C(=O)N[C@@H]1C(=O)N2C(C(=O)[O-])=C(C[n+]3ccccc3)CS[C@H]12)c1csc(N)n1)C(=O)O` [Ceftazidime], the “No. resistant (column %)” value [2, 4] was 1 (1), the “No. resistant (column %)” value [2, 5] was 1 (1) and the “No. resistant (column %)” value [2, 6] was 0 (0). The “No. resistant (column %)” value [2, 7] was 92 (92), the “No. resistant (column %)” value [2, 8] was 47 (92) and the “No. resistant (column %)” value [2, 9] was 45 (92). The “No. of resistant isolates (column %), H30-Rx (N = 47)” value [2] was 40 (85) No. (column %), the “No. of resistant isolates (column %), H30, non-Rx (N = 15)” value [2] was 4 (27) No. (column %) and the “No. of resistant isolates (column %), H30 (N = 62)” value [2] was 44 (71) No. (column %). The “No. of resistant isolates (column %), Non-H30 (N = 9)” value [2] was 1 (11) No. (column %).

For `CO/N=C(\C(=O)N[C@@H]1C(=O)N2C(C(=O)O)=C(CSc3nc(=O)c(=O)[nH]n3C)CS[C@H]12)c1csc(N)n1` [Ceftriaxone, ceftriaxone], the “No. of resistant isolates (column %)” value ([1]; All isolates, N = 299) was 16 (6), the “Resistance prevalence among H30 ST131” value [1] was 9% and the “No. of resistant isolates (column %)” value ([1]; Other STs, N = 129) was 8 (7). The “No. of resistant isolates (column %)” value ([1]; ST9, N = 32) was 0, the “No. of resistant isolates (column %)” value ([1]; ST69, N = 15) was 0 and the “No. of resistant isolates (column %)” value ([1]; ST73, N = 25) was 0. For the same molecule, the “No. of resistant isolates (column %)” value ([1]; ST127, N = 18) was 0, the “No. of resistant isolates (column %)” value ([1]; ST131, N = 80) was 8 (11) and the “Resistance prevalence among non-H30 ST131” value [1] was 29%. For the same molecule, the “No. resistant (column %)” value [2, 4] was 1 (1), the “No. resistant (column %)” value [2, 5] was 1 (1) and the “No. resistant (column %)” value [2, 6] was 0 (0). The “No. resistant (column %)” value [2, 7] was 98 (98), the “No. resistant (column %)” value [2, 8] was 51 (100) and the “No. resistant (column %)” value [2, 9] was 47 (96). The “No. of resistant isolates (column %), H30-Rx (N = 47)” value [2] was 42 (89) No. (column %), the “No. of resistant isolates (column %), H30, non-Rx (N = 15)” value [2] was 4 (27) No. (column %) and the “No. of resistant isolates (column %), H30 (N = 62)” value [2] was 46 (74) No. (column %). The “No. of resistant isolates (column %), Non-H30 (N = 9)” value [2] was 1 (11) No. (column %), the “Prevalence of resistance, H30 ST131” value [3] was 4 and the “Prevalence of resistance, ST131” value [3] was 3. The “Prevalence of resistance, Total (%)” value [3] was 2%, the “Prevalence of resistance, Others (%)” value [3, 10] was 2% and the “Prevalence of resistance, Others (%)” value [3, 11] was 2%. For the same molecule, the “Estimated fraction due to ST131” value [3] was “.43”, the “Overall prevalence in population, %” value [3] was 2% and the “Prevalence ratio of resistance” value [3, 12] was 2.0. For the same molecule, the “Prevalence ratio of resistance” value [3, 13] was 1.9.

In the case of gentamicin, the “No. of resistant isolates (column %)” value ([1]; All isolates, N = 299) is reported as 29 (10), the “Resistance prevalence among H30 ST131” value [1] is reported as 30% and the “No. of resistant isolates (column %)” value ([1]; Other STs, N = 129) is reported as 5 (4). For the same molecule, the “No. of resistant isolates (column %)” value ([1]; ST9, N = 32) was 0, the “No. of resistant isolates (column %)” value ([1]; ST69, N = 15) was 0 and the “No. of resistant isolates (column %)” value ([1]; ST73, N = 25) was 0. The “No. of resistant isolates (column %)” value ([1]; ST127, N = 18) was 1 (6), the “No. of resistant isolates (column %)” value ([1]; ST131, N = 80) was 23 (29) and the “Resistance prevalence among non-H30 ST131” value [1] was 20%. The “No. resistant (column %)” value [2, 4] was 12 (7), the “No. resistant (column %)” value [2, 5] was 2 (1) and the “No. resistant (column %)” value [2, 6] was 10 (45). For the same molecule, the “No. resistant (column %)” value [2, 7] was 48 (48), the “No. resistant (column %)” value [2, 8] was 30 (59) and the “No. resistant (column %)” value [2, 9] was 18 (37). The “No. of resistant isolates (column %), H30-Rx (N = 47)” value [2] was 15 (32) No. (column %), the “No. of resistant isolates (column %), H30, non-Rx (N = 15)” value [2] was 8 (53) No. (column %) and the “No. of resistant isolates (column %), H30 (N = 62)” value [2] was 23 (37) No. (column %). For the same molecule, the “No. of resistant isolates (column %), Non-H30 (N = 9)” value [2] was 5 (56) No. (column %), the “Prevalence of resistance, H30 ST131” value [3] was 28 and the “Prevalence of resistance, ST131” value [3] was 29. For the same molecule, the “Prevalence of resistance, Total (%)” value [3] was 11%, the “Prevalence of resistance, Others (%)” value [3, 10] was 5% and the “Prevalence of resistance, Others (%)” value [3, 11] was 3%. For the same molecule, the “ST131's overall contribution to antimicrobial resistance within the source E. coli population” value ([3]; back-calculations) was 76%, the “Estimated fraction due to ST131” value [3] was “.76” and the “Overall prevalence in population, %” value [3] was 11%. The “Prevalence ratio of resistance” value [3, 12] was 5.4 and the “Prevalence ratio of resistance” value [3, 13] was 8.2.

Reference: patent US9834823B2, “Primers, assays and methods for detecting an E. coli subtype” (priority 2012, dated 2017)
